In patent US20230242494A1, “MALONITRILE DERIVATIVES” (Hoffmann-La Roche Inc., priority 2020, published 2023) one finds IC50 data, which are given here for 35 molecules.

Structures are written as SMILES.

The target of the assay is T1, human cGAS (residues 161-522) (Homo sapiens, UniProt Q8N884).
T1 construct: human cGAS (residues 161-522); made in house
T1 sequence (Q8N884 161-522): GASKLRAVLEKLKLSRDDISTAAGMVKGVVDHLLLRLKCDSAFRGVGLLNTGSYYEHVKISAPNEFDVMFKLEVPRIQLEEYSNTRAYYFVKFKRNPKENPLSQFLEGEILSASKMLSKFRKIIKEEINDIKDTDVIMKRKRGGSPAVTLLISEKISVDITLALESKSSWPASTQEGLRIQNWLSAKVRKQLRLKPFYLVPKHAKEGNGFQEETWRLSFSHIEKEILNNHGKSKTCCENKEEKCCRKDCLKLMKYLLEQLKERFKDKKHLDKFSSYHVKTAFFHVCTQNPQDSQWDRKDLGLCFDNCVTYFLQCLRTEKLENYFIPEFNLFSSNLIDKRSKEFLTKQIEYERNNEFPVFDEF
Nature of the assay: cGAS Activity Assay—Malachite Green. It is filed as biochemical. The conditions noted are these: recombinant purified human cGAS 25 nM; 80 μM ATP, 80 μM GTP, 100 nM ISD; 4 hour at RT; phosphate detection by Malachite Green. In short, it runs like this: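 Human cGAS (161-522, 25 nM) in 20 mM TRIS pH 7.5, 5 mM MgCl2, 0.01% BSA with 80 μM ATP, 80 μM GTP and 100 nM ISD DNA, 4 h at RT. Pyrophosphate converted by PPase, phosphate read with Malachite Green at 620 nm; IC50 from 4-parameter fit of 16-point series.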
For `Cc1oncc1/C(O)=C(\C#N)C(=O)Nc1ccc([S+]([O-])c2ccccc2)cn1` (centres unmarked) [Example 90, (Z)-2-cyano-3-hydroxy-3-(5-methylisoxazol-4-yl)-N-(5-(phenylsulfinyl)pyridin-2-yl)acrylamide], the IC50 was determined as 0.13 µM.

As for `Cc1oncc1/C(O)=C(\C#N)C(=O)Nc1ccc(S(C)(=O)=O)cn1` [Example 91, (Z)-2-cyano-3-hydroxy-3-(5-methylisoxazol-4-yl)-N-(5-(methylsulfonyl)pyridin-2-yl)acrylamide], the IC50 stood at 0.1 µM.

As for `Cc1oncc1/C(O)=C(\C#N)C(=O)Nc1ncc(C(F)(F)F)cc1F` [Example 92], the IC50 is 0.25 µM.

As to `Cc1oncc1/C(O)=C(\C#N)C(=O)Nc1ccc(S(=O)(=O)NC(C)(C)C)cn1` [Example 93, (Z)-N-(5-(N-(tert-butyl)sulfamoyl)pyridin-2-yl)-2-cyano-3-hydroxy-3-(5-methylisoxazol-4-yl)acrylamide], the IC50 stood at 0.14 µM.

On to `Cc1oncc1/C(O)=C(\C#N)C(=O)Nc1ncc(C(F)(F)F)cn1` [Example 94, (Z)-2-cyano-3-hydroxy-3-(5-methylisoxazol-4-yl)-N-(5-(trifluoromethyl)pyrimidin-2-yl)acrylamide], for which the IC50 amounted to 0.09 µM.

As to `Cc1oncc1/C(O)=C(\C#N)C(=O)Nc1ccc(S(=O)(=O)c2ccccc2)cn1` [Example 95, (Z)-2-cyano-3-hydroxy-3-(5-methylisoxazol-4-yl)-N-(5-(phenylsulfonyl)pyridin-2-yl)acrylamide], the IC50 stood at 0.1 µM.

Regarding `Cc1oncc1/C(O)=C(\C#N)C(=O)Nc1ncc(S(=O)(=O)N(C)C)cn1` [Example 96, (Z)-2-cyano-N-(5-(N,N-dimethylsulfamoyl)pyrimidin-2-yl)-3-hydroxy-3-(5-methylisoxazol-4-yl)acrylamide], the IC50 stood at 0.07 µM.

With `Cc1oncc1/C(O)=C(\C#N)C(=O)Nc1ncc(Sc2ccccc2)cn1` [Example 97, (Z)-2-cyano-3-hydroxy-3-(5-methylisoxazol-4-yl)-N-(5-phenylsulfanylpyrimidin-2-yl)prop-2-enamide], the IC50 was 0.21 µM.

On to `CCOc1cnc(NC(=O)/C(C#N)=C(\O)c2cnoc2C)nc1` [Example 98, (Z)-2-cyano-N-(5-ethoxypyrimidin-2-yl)-3-hydroxy-3-(5-methylisoxazol-4-yl)acrylamide], for which the IC50 is 0.08 µM.

`Cc1oncc1/C(O)=C(\C#N)C(=O)Nc1ncc(C(=O)N(C)c2ccccc2)cn1` [Example 99, 2-[[(Z)-2-cyano-3-hydroxy-3-(5-methylisoxazol-4-yl)prop-2-enoyl]amino]-N-methyl-N-phenyl-pyrimidine-5-carboxamide]: the IC50 came out at 0.09 µM.

As to `Cc1oncc1/C(O)=C(\C#N)C(=O)Nc1ncc(C(=O)N(C)Cc2ccccc2)cn1` [Example 100, N-benzyl-2-[[(Z)-2-cyano-3-hydroxy-3-(5-methylisoxazol-4-yl)prop-enoyl]amino]-N-methyl-2-pyrimidine-5-carboxamide], the IC50 was determined as 0.07 µM.

For `Cc1oncc1/C(O)=C(\C#N)C(=O)Nc1nccc(OCCF)n1` [Example 101, (Z)-2-cyano-N-(4-(2-fluoroethoxy)pyrimidin-2-yl)-3-hydroxy-3-(5-methylisoxazol-4-yl)acrylamide], the IC50 turned out to be 0.12 µM.

As to `Cc1oncc1/C(O)=C(\C#N)C(=O)Nc1ncc(CCc2ccccc2)cn1` [Example 102, (Z)-2-cyano-3-hydroxy-3-(5-methylisoxazol-4-yl)-N-(5-phenethylpyrimidin-2-yl)acrylamide], the IC50 is 0.15 µM.

For `CCS(=O)(=O)c1cnc(NC(=O)/C(C#N)=C(\O)c2cnoc2C)nc1` [Example 103, (Z)-2-cyano-N-(5-(ethylsulfonyl)pyrimidin-2-yl)-3-hydroxy-3-(5-methylisoxazol-4-yl)acrylamide], the IC50 was found to be 0.04 µM.

On to `Cc1oncc1/C(O)=C(\C#N)C(=O)Nc1ccc(C(C)(C)c2ccccc2)cc1` [Example 104, (Z)-2-cyano-3-hydroxy-3-(5-methylisoxazol-4-yl)-N-(4-(2-phenylpropan-2-yl)phenyl)acrylamide], for which the IC50 is 3.11 µM.

As to `Cc1oncc1/C(O)=C(\C#N)C(=O)Nc1ncc(C(=O)Nc2ccccc2)cn1` [Example 105, 2-[[(Z)-2-cyano-3-hydroxy-3-(5-methylisoxazol-4-yl)prop-2-enoyl]amino]-N-phenyl-pyrimidin-5-carboxamide], the IC50 is 0.15 µM.

For `Cc1oncc1/C(O)=C(\C#N)C(=O)Nc1ncc(C(=O)NCc2ccccc2)cn1` [Example 106, N-benzyl-2-[[(Z)-2-cyano-3-hydroxy-3-(5-methylisoxazol-4-yl)prop-2-enoyl]amino]pyrimidine-5-carboxamide], the IC50 amounted to 0.05 µM.

On to `Cc1oncc1/C(O)=C(\C#N)C(=O)Nc1ncc(Br)cn1` [Example 107, (Z)-N-(5-bromopyrimidin-2-yl)-2-cyano-3-hydroxy-3-(5-methylisoxazol-4-yl)acrylamide], for which the IC50 is 0.06 µM.

Turning to `Cc1oncc1/C(O)=C(\C#N)C(=O)Nc1nc(Cl)c(-c2ccccc2)c(NS(=O)(=O)c2ccc(Cl)cc2)n1` [Example 108, (Z)-N-(4-chloro-6-((4-chlorophenyl)sulfonamido)-5-phenylpyrimidin-2-yl)-2-cyano-3-hydroxy-3-(5-methylisoxazol-4-yl)acrylamide], the IC50 turned out to be 5.01 µM.

In the case of `Cc1oncc1/C(O)=C(\C#N)C(=O)Nc1ccc(S(=O)(=O)Cc2ccccc2Cl)cn1` [Example 109, (Z)—N-(5-((2-chlorobenzyl)sulfonyl)pyridin-2-yl)-2-cyano-3-hydroxy-3-(5-methylisoxazol-4-yl)acrylamide], the IC50 is 0.72 µM.

Take `COCCS(=O)(=O)c1cnc(NC(=O)/C(C#N)=C(\O)c2cnoc2C)nc1` [Example 110, (Z)-2-cyano-3-hydroxy-N-(5-((2-methoxyethyl)sulfonyl)pyrimidin-2-yl)-3-(5-methylisoxazol-4-yl)acrylamide]: the IC50 worked out at 0.06 µM.

As to `Cc1oncc1/C(O)=C(\C#N)C(=O)Nc1ncc(S(=O)(=O)c2ccccc2)cn1` [Example 111, (Z)-N-[5-(benzenesulfonyl)pyrimidin-2-yl]-2-cyano-3-hydroxy-3-(5-methylisoxazol-4-yl)prop-2-enamide], the IC50 worked out at 0.02 µM.

`Cc1oncc1/C(O)=C(\C#N)C(=O)Nc1ncc([S+]([O-])c2ccccc2)cn1` (centres unmarked) [Example 112, (Z)-N-[5-(benzenesulfinyl)pyrimidin-2-yl]-2-cyano-3-hydroxy-3-(5-methylisoxazol-4-yl)prop-2-enamide]: the IC50 is 0.02 µM.

In the case of `Cc1oncc1/C(O)=C(\C#N)C(=O)Nc1ccc(S(C)(=N)=O)cc1` (centres unmarked) [Example 113, (Z)-2-Cyano-3-hydroxy-3-(5-methylisoxazol-4-yl)-N-(4-(S-methylsulfonimidoyl)phenyl)acrylamide], the IC50 was 0.33 µM.

Consider `Cc1oncc1/C(O)=C(\C#N)C(=O)Nc1ccc(S(=N)(=O)c2ccccc2)cc1` (centres unmarked) [Example 114, (Z)-2-cyano-3-hydroxy-3-(5-methylisoxazol-4-yl)-N-(4-(phenylsulfonimidoyl)phenyl)acrylamide], for which the IC50 turned out to be 0.12 µM.

As to `Cc1oncc1/C(O)=C(\C#N)C(=O)Nc1ccc(S(C)(=O)=O)cc1` [Example 115, (Z)-2-cyano-3-hydroxy-3-(5-methylisoxazol-4-yl)-N-(4-methylsulfonylphenyl) prop-2-enamide], the IC50 was determined as 0.18 µM.

For `Cc1oncc1/C(O)=C(\C#N)C(=O)Nc1ccc([S+](C)[O-])cc1` (centres unmarked) [Example 116, (Z)-2-cyano-3-hydroxy-3-(5-methylisoxazol-4-yl)-N-(4-methylsulfinylphenyl) prop-2-enamide], the IC50 worked out at 0.38 µM.

On to `COCCN(C)S(=O)(=O)c1cnc(NC(=O)/C(C#N)=C(\O)c2cnoc2C)nc1` [Example 117, (Z)-2-Cyano-3-hydroxy-N-(5-(N-(2-methoxyethyl)-N-methylsulfamoyl)pyrimidin-2-yl)-3-(5-methylisoxazol-4-yl)acrylamide], for which the IC50 turned out to be 0.05 µM.

For the molecule `COCCNS(=O)(=O)c1cnc(NC(=O)/C(C#N)=C(\O)c2cnoc2C)nc1` [Example 118, (Z)-2-cyano-3-hydroxy-N-(5-(N-(2-methoxy-ethyl)sulfamoyl)pyrimidin-2-yl)-3-(5-methylisoxazol-4-yl)acrylamide], the IC50 is 0.04 µM.

For `COCCN(C)S(=O)(=O)c1ccc(NC(=O)/C(C#N)=C(\O)c2cnoc2C)cc1` [Example 119, (Z)-2-Cyano-3-hydroxy-N-(4-(N-(2-methoxyethyl)-N-methylsulfamoyl)phenyl)-3-(5-methylisoxazol-4-yl)acrylamide], the IC50 was 0.17 µM.

As to `Cc1oncc1/C(O)=C(\C#N)C(=O)Nc1ccc(S(=O)(=O)N(C)CCN(C)C)cc1` [Example 120, (Z)-2-cyano-N-(4-(N-(2-(dimethylamino)ethyl)-N-methylsulfamoyl)phenyl)-3-hydroxy-3-(5-methylisoxazol-4-yl)acrylamide], the IC50 stood at 0.67 µM.

Consider `Cc1oncc1/C(O)=C(\C#N)C(=O)Nc1ccc(S(=O)(=O)c2ccc(C#N)cc2)cc1` [Example 121, (Z)-2-Cyano-N-(4-((4-cyanophenyl)sulfonyl)phenyl)-3-hydroxy-3-(5-methylisoxazol-4-yl)acrylamide], for which the IC50 amounted to 0.38 µM.

On to `Cc1oncc1/C(O)=C(\C#N)C(=O)Nc1ccc(S(=O)(=O)c2ccccc2C#N)cc1` [Example 122, (Z)-2-cyano-N-(4-((2-cyanophenyl)sulfonyl)phenyl)-3-hydroxy-3-(5-methylisoxazol-4-yl)acrylamide], for which the IC50 amounted to 0.13 µM.

For the molecule `Cc1oncc1/C(O)=C(\C#N)C(=O)Nc1ccc(S(=O)(=O)c2cccnc2)cc1` [Example 123, (Z)-2-cyano-3-hydroxy-3-(5-methylisoxazol-4-yl)-N-(4-(pyridin-3-ylsulfonyl)phenyl) acrylamide], the IC50 is 0.21 µM.

Take `COc1cnc(NC(=O)/C(C#N)=C(\O)c2cnoc2C)nc1-c1ccccc1` [Example 124, (Z)-2-cyano-3-hydroxy-N-(5-methoxy-4-phenylpyrimidin-2-yl)-3-(5-methylisoxazol-4-yl)acrylamide]: the 50% inhibitory concentration (IC50) was determined as 0.17 µM.
